Data reported in patent US9457018B2, “Method for combating adverse effects arising from antipsychotic treatment” (Saniona A/S, priority 2008, dated 2016).

Assay: Olanzapine-induced weight gain in a rat model of antipsychotic drug induced obesity (three weeks study)
Format: in vivo, Female Sprague-Dawley (SPRD) rats
Details: tesofensine 2.0 mg/kg s.c. co-treatment with olanzapine 2.0 mg/kg p.o. from day 15, for 7 days, female SPRD rats
Experimental: Female Sprague-Dawley (SPRD) rats were placed on 10% fat kcal futter. The rats were tagged subcutaneously with a microship in the neck and placed in an automatized food intake monitoring system. […] Co-administration of vehicle or tesofensine continued for 7 days in total. Body weight and food intake was measured on a daily basis, and body weight gain and cumulative food intake was calculated. Data were evaluated using a two-way ANOVA with Bonferroni's post-hoc test (daily body weight gain and food intake) or a one-way ANOVA with Tukey's post-hoc test.

SMILES: CCOC[C@@H]1[C@@H](c2ccc(Cl)c(Cl)c2)C[C@@H]2CC[C@H]1N2C [tesofensine, (1R,2R,3S,5S)-3-(3,4-dichlorophenyl)-2-(ethoxymethyl)-8-methyl-8-azabicyclo[3.2.1]octane]
- effect on hypophagic response to olanzapine (food intake): completely prevented
- effect on olanzapine-induced body weight gain: completely prevented
- effect on hypophagic response to olanzapine (food intake) (listed as Tesofensine): prevents
- effect on olanzapine-induced body weight gain (listed as Tesofensine): prevents
